Data from patent US5470873A, “Diabetes prevention and treatment using gamma-pyrones” (University Technologies International, Inc., priority 1994, dated 1995).

Legend:
[1] = immunosuppressive therapy, humans; cited from earlier work
[2] = oral; flavoring agents for foods; cited from earlier work
[3] = Pancreatic insulin content (immunoreactive insulin, radioimmunoassay) in NOD mice; assay type: in vivo
Procedure: Insulin was extracted from the pancreas of non-obese diabetic (NOD) mouse by known methods ^33,34. Briefly, deep frozen pancreatic tissue (50% of each pancreas) was placed into phosphate buffered saline (PBS) and then extraction solution A (380 ml absolute alcohol, 20 ml H2 O, 8 ml concentrated HCl and some drops of alcoholic phenol red) was added. This mixture was homogenized with polytron type PT 10-20-[…] in glass tubes (15×125 mm) for 30 seconds in position 5. The homogenized material in the tubes was incubated at 4° C. for 10 hours. At the end of the incubation period, the homogenized material was centrifuged at 800 g for 5 minutes for clarification. The supernatant was saved. The pellet was re-extracted with 1 ml of extraction solution B (356 ml absolute alcohol, 124 ml H2 O and 7.5 ml HCl). The pellet in extraction solution B was incubated for 4 hours at 4° C. and then homogenized with a polytron as described above. The homogenized material was centrifuged at 800 g for 5 minutes. The supernatant was pooled with the supernatant from the first extraction. The pooled supernatant was neutralized with concentrated NH40 H (about 10 μl ) until the phenol red turned to purple. The neutralized supernatant was precipitated at 4° C. and then centrifuged at 800 g for 5 min. The supernatant, which contains insulin, was used for the measurement of insulin by radioimmunoassay. The concentration of immunoreactive insulin (IRI) in the pancreas from DPD-treated and untreated NOD mice was measured by radioimmunoassay techniques ^42-44 using mouse insulin as a standard. Briefly, the extracted samples from NOD mice were mixed with […], and anti-insulin antibody. The mixed materials were incubated for 2 hours at room temperature. At the end of the incubation period, anti-guinea pig IgG raised in sheep was added and the mixture was incubated for 30 minutes at room temperature. At the end of the incubation, the samples were centrifuged at 1500 g for 10 minutes. The supernatant was completely removed. The radioactivity of the pellets was measured. The percent of activity was determined by the following formula: [formula] On the basis of % activity in standards, a standard curve was constructed. The concentration of each unknown sample from maltol-treated or untreated NOD pancreas was read on the basis of the standard curve. […] The maltol-treated mice have insulin levels that are similar to the non-diabetic, untreated animals. About 75% of the maltol-treated mice have insulin levels over 80 μg/g pancreas and about 25% have insulin levels between 55-75 μg/g pancreas.

[4] = test system: pancreatic islets; test: Histologic changes of pancreatic islets (hematoxylin and eosin); assay type: in vivo, NOD mice; conditions: compared to untreated, diabetic NOD mice
Source text: Maltol-treated and untreated NOD mice were sacrificed and 25% of each pancreas was fixed in 6% Formalin. Paraffin-embedded sections were stained with hematoxylin and eosin and examined under an Olympus light microscope ^49. To see whether there are any histological differences between the pancreatic islets of DPD-treated and untreated NOD mice, the pancreatic islets of 35 week old mice were examined with the light microscope after staining with hematoxylin and eosin. […] The rest of their islets were rated as having either severe (22%), moderate (27%), mild (25%) or no (6%) insulitis. […] In addition, there were histopathological changes in their pancreatic islets that were rated as moderate (22% of examined islets), mild (30%) or as having no insulitis (15%).

[5] = Blood glucose levels in NOD mice (glucose oxidase method); assay type: in vivo; conditions: 35 weeks of age
Procedure: (§1) NOD mice were dosed with maltol to evaluate its effect on the pathogenesis of type I diabetes. Mice received 5 mg maltol/mouse every other day from age 2 weeks until they were 20 weeks old. Maltol extracted from ginseng as described in Example 2 was used for the first 10 weeks, then maltol purchased from Sigma Co., St. Louis, MO was used thereafter. The mice were kept until they were 35 weeks old. Urine glucose was measured at 3-day intervals from 10 to 35 weeks of age. Urinary glucose and ketone levels were determined using Diastix and Ketostix reagent slips (Miles, Ontario, Canada). Individual mice were classified as being diabetic on the basis of positive glycosuria^38. […] In contrast, 78% of age-matched control mice (22 mice) spontaneously developed autoimmune diabetes. At 35 weeks of age, fasting (8 hours of fasting) and non-fasting blood glucose levels were measured. Blood was obtained from the retro-orbital venous plexus of fasting and nonfasting NOD mice. Glucose levels were measured enzymatically by the glucose oxidase method with o-dianisidine dihydrochloride as the reactive dye ^39-41 . The mean nonfasting blood glucose level of 35 ICR mice (nondiabetic control mice; NOD mice were derived from ICR mice) was 149±27 mg/dl. Any non-fasting mouse with a blood glucose level greater than 230 mg/dl (3 SD above the mean) was scored as diabetic. The mean fasting blood glucose level of 38 ICR mice was 137±28 mg/dl. Any fasting mouse with a blood glucose level greater than 221 mg/dl (3 SD above the mean) was scored as diabetic.

[6] = Prevention of clinical diabetes (glycosuria) in NOD mice; assay type: in vivo
Procedure: as §1

[7] = test system: pancreatic beta cells; test: Destruction of pancreatic beta cells detected by fluorescein labelled anti-insulin antibody; assay type: in vivo, NOD mice; conditions: compared to untreated, diabetic NOD mice
Procedure: Fluorescein isothiocyanate-labelled anti-insulin antibody was prepared as described previously 45. Briefly, gamma globulin that was prepared by immunizing guinea pigs with glutaraldehyde polymerized porcine insulin and purified by Sephadex G-200 chromatography was purchased from Index Corp., Glenwood, Ill, USA. This material was labelled with FITC. Unconjugated FITC was removed by dialysis against 0.01M PBS (pH 7.5) and by gel filtration through a Sephadex G-25. The labelled gamma globulin was subsequently absorbed with acetone-treated mouse liver powder to eliminate nonspecific fluorescence. Pancreatic sections (from 25% of each pancreas) prepared from maltol-treated and untreated NOD mice were stained with FITC-labelled anti-insulin antibody and examined under a fluorescent microscope as described elsewhere 47.48. Briefly, pancreatic sections on the slides were flooded with FITC-labelled anti-insulin antibody and incubated in a humidity chamber overnight at 4° C. in the dark. The slides were then washed in three changes of cold PBS for a total of 20 min to remove any unattached antibody, mounted with Elvanol and observed with an Olympus fluorescence microscope ^45. As it is difficult to determine whether the lymphocytes observed in the pancreatic islets are contributing to beta cell destruction, another method was used to determine whether beta cells from maltol-treated or untreated NOD mice were destroyed or not. Sections of pancreatic islets were stained with a fluorescein-labelled anti-insulin antibody and the number of insulin-containing beta cells in the islets was estimated.

[8] = Inhibition of hydrogen peroxide induced free radical production (luminol chemiluminescence); assay type: biochemical; conditions: for Chemiluminescence: 3 μM luminol, 20 μl H2O2, without maltol 11845.0 ± 1414.0
Procedure: One of the possible mechanisms for the destruction of pancreatic beta cells in autoimmune Type I diabetes is their damage by free radicals and cytokines released from macrophages and T lymphocytes. It is hypothesized that maltol can inhibit the action of these released radicals and thus prevent Type I diabetes. We measured the effect of maltol on the inhibition of free radicals produced by hydrogen peroxide.
Chemiluminescence produced by hydrogen peroxide was measured using a liquid scintillation counter (LKB 1217/1217 Rack Beta) set to the tritium channel. Briefly, luminol (5-amino-2,3-dihydro-l,4-phthalazinedione) was dissolved in dimethylsulfoxide and diluted with Krebs-Ringer bicarbonate buffer (pH 7.4) containing […] Hepes and no glucose. The final concentration of dimethylsulfoxide was 0.06 μl/ml. Under these assay conditions, 3 μM luminol and various amounts of hydrogen peroxide ranging from 5-20μl were mixed with 5 ml of Krebs-Ringer bicarbonate buffer, with or without maltol. Chemiluminescence was measured for a 30 second period beginning at 20 seconds after the addition of hydrogen peroxide.

Structure (SMILES)	Effect on course of IDDM [1]	Toxicity when taken orally [2]	Pancreatic insulin / protection from beta cell destruction (in words) ([3]; NOD mice)	Pancreatic insulin level ([3]; about 25% of the maltol-treated mice)	Pancreatic insulin level ([3]; about 75% of the maltol-treated mice, majority of untreated less than 10 μg/g)	Lymphocytic infiltration of the pancreatic islets (in words) [4]	Mean fasting blood glucose ([5]; fasting (8 hours), untreated diabetic 334±47)	Mean non-fasting blood glucose ([5]; non-fasting, untreated diabetic 342±45)	Success in preventing clinical diabetes [6]	Mice showing signs of clinical diabetes ([6]; 5 mg/mouse every other day, age 2 to 20 weeks, urine glucose 10 to 35 weeks, untreated 78%)	Prevention / recurrence of clinical diabetes (in words) ([6]; observed to 35 weeks, incl. 15 weeks after cessation of treatment)	Destruction of pancreatic beta cells (in words) [7]	Percent inhibition of free radical production ([8]; 0.2 mM maltol)	Chemiluminescence ([8]; 0.2 mM maltol)	Percent inhibition of free radical production ([8]; 2.0 mM maltol)	Chemiluminescence ([8]; 2.0 mM maltol)	Percent inhibition of free radical production ([8]; 80 mM maltol)	Chemiluminescence ([8]; 80 mM maltol)
O=P1(N(CCCl)CCCl)NCCCO1 (stereo not shown) [cyclophosphamide]	did not alter the course of the disease	–	–	–	–	–	–	–	–	–	–	–	–	–	–	–	–	–
CCc1occc(=O)c1O [ethyl maltol]	–	very low toxicities when taken orally	–	–	–	–	–	–	–	–	–	–	–	–	–	–	–	–
Cc1occc(=O)c1O [maltol, 3-Hydroxy-2-methyl-4-pyrone]	–	very low toxicities when taken orally	substantial protection from beta cell destruction	55-75 μg/g pancreas	over 80 μg/g pancreas	much less lymphocytic infiltration of the pancreatic islets	92 ± 17 mg/dL	132 ± 19 mg/dL	100%	0%	can prevent clinical diabetes completely	significantly less destruction of pancreatic beta cells	60%	4829.3 ± 792.1 cpm	98%	210. ± 55.1 cpm	99.7%	31.6 ± 3.1 cpm
